# Test results: the supplement of paper PMC10307832
# Legend:
# Test in all cases: relative viability (nuclei count vs DMSO), 5 days (fraction); higher = more cells survive
# [1] = test system: 201T
# Outline: (§1)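 Relative viability was taken as the ratio of nuclei in treated wells to nuclei in vehicle wells. Lung cancer cell lines in 1536-well plates received compounds by pin tool one day after seeding, either one drug alone or a fixed anchor-drug dose plus five library-drug doses (not always all listed) in √10 steps. Nuclei were counted on 4× images after 5 days of treatment, and values are medians of duplicate plates.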
# [2] = test system: BEN
# Outline: as §1
# [3] = test system: EMC-BAC-2
# Outline: as §1
# [4] = test system: HARA
# Outline: as §1
# [5] = test system: HCC-44
# Outline: as §1
# [6] = test system: LCLC-103H
# Outline: as §1
# [7] = test system: LOU-NH91
# Outline: as §1
# [8] = test system: NCI-H1395
# Outline: as §1
# [9] = test system: NCI-H1666
# Outline: as §1
# [10] = test system: NCI-H1993
# Outline: as §1
# [11] = test system: NCI-H2009
# Outline: as §1
# [12] = test system: NCI-H2023
# Outline: as §1
# [13] = test system: NCI-H2087
# Outline: as §1
# [14] = test system: NCI-H2126
# Outline: as §1
# [15] = test system: NCI-H2347
# Outline: as §1
# [16] = test system: NCI-H23
# Outline: as §1
# [17] = test system: NCI-H3122
# Outline: as §1
# [18] = test system: NCI-H441
# Outline: as §1
# [19] = test system: NCI-H596
# Outline: as §1
# [20] = test system: NCI-H647
# Outline: as §1
# [21] = test system: NCI-H650
# Outline: as §1
# [22] = test system: NCI-H727
# Outline: as §1
# [23] = test system: NCI-H838
# Outline: as §1
compound,measurement,setting,value
O=C(O)c1ccc(-c2c[nH]c3ncc(-c4ccccc4)cc23)cc1C1CCCC1 + COc1cccc2cc(-c3nc([C@H]4CC[C@H](C(=O)O)CC4)n4ncnc(N)c34)[nH]c12 [OSI-027] (partner 0.5 µM),relative viability,[1]; first compound 0.04 µM,0.693
same,relative viability,[1]; first compound 0.1265 µM,0.682
same,relative viability,[1]; first compound 1.265 µM,0.716
same,relative viability,[2]; first compound 0.04 µM,0.329
same,relative viability,[2]; first compound 0.1265 µM,0.269
same,relative viability,[2]; first compound 0.4 µM,0.307
same,relative viability,[2]; first compound 1.265 µM,0.284
same,relative viability,[3]; first compound 0.04 µM,0.401
same,relative viability,[3]; first compound 0.1265 µM,0.388
same,relative viability,[3]; first compound 0.4 µM,0.39
same,relative viability,[3]; first compound 1.265 µM,0.365
same,relative viability,[4]; first compound 0.04 µM,0.463
same,relative viability,[4]; first compound 0.1265 µM,0.733
same,relative viability,[4]; first compound 0.4 µM,0.55
same,relative viability,[4]; first compound 1.265 µM,0.591
same,relative viability,[5]; first compound 0.04 µM,0.512
same,relative viability,[5]; first compound 0.1265 µM,0.505
same,relative viability,[5]; first compound 0.4 µM,0.594
same,relative viability,[5]; first compound 1.265 µM,0.484
same,relative viability,[6]; first compound 0.04 µM,0.444
same,relative viability,[6]; first compound 0.1265 µM,0.554
same,relative viability,[6]; first compound 0.4 µM,0.389
same,relative viability,[6]; first compound 1.265 µM,0.452
same,relative viability,[7]; first compound 0.04 µM,0.743
same,relative viability,[7]; first compound 0.1265 µM,0.824
same,relative viability,[7]; first compound 0.4 µM,0.733
same,relative viability,[7]; first compound 1.265 µM,0.73
same,relative viability,[8]; first compound 0.04 µM,0.627
same,relative viability,[8]; first compound 0.1265 µM,0.773
same,relative viability,[8]; first compound 0.4 µM,0.516
same,relative viability,[8]; first compound 1.265 µM,0.537
same,relative viability,[9]; first compound 0.04 µM,0.846
same,relative viability,[9]; first compound 0.1265 µM,0.884
same,relative viability,[9]; first compound 0.4 µM,0.906
same,relative viability,[9]; first compound 1.265 µM,0.624
same,relative viability,[10]; first compound 0.04 µM,0.521
same,relative viability,[10]; first compound 0.1265 µM,0.55
same,relative viability,[10]; first compound 0.4 µM,0.568
same,relative viability,[10]; first compound 1.265 µM,0.586
same,relative viability,[11]; first compound 0.04 µM,0.69
same,relative viability,[11]; first compound 0.1265 µM,0.687
same,relative viability,[11]; first compound 0.4 µM,0.648
same,relative viability,[11]; first compound 1.265 µM,0.549
same,relative viability,[12]; first compound 0.04 µM,0.516
same,relative viability,[12]; first compound 0.1265 µM,0.572
same,relative viability,[12]; first compound 0.4 µM,0.41
same,relative viability,[12]; first compound 1.265 µM,0.319
same,relative viability,[13]; first compound 0.04 µM,0.563
same,relative viability,[13]; first compound 0.1265 µM,0.673
same,relative viability,[13]; first compound 0.4 µM,0.416
same,relative viability,[13]; first compound 1.265 µM,0.47
same,relative viability,[14]; first compound 0.04 µM,0.749
same,relative viability,[14]; first compound 0.1265 µM,0.732
same,relative viability,[14]; first compound 0.4 µM,0.827
same,relative viability,[14]; first compound 1.265 µM,0.618
same,relative viability,[15]; first compound 0.04 µM,0.451
same,relative viability,[15]; first compound 0.1265 µM,0.392
same,relative viability,[15]; first compound 0.4 µM,0.425
same,relative viability,[15]; first compound 1.265 µM,0.367
same,relative viability,[16]; first compound 0.04 µM,0.599
same,relative viability,[16]; first compound 0.1265 µM,0.71
same,relative viability,[16]; first compound 0.4 µM,0.576
same,relative viability,[16]; first compound 1.265 µM,0.531
same,relative viability,[17]; first compound 0.04 µM,0.973
same,relative viability,[17]; first compound 0.1265 µM,1.12
same,relative viability,[17]; first compound 0.4 µM,0.922
same,relative viability,[17]; first compound 1.265 µM,0.717
same,relative viability,[18]; first compound 0.04 µM,0.675
same,relative viability,[18]; first compound 0.1265 µM,0.567
same,relative viability,[18]; first compound 0.4 µM,0.571
same,relative viability,[18]; first compound 1.265 µM,0.466
same,relative viability,[19]; first compound 0.04 µM,0.728
same,relative viability,[19]; first compound 0.1265 µM,0.733
same,relative viability,[19]; first compound 0.4 µM,0.833
same,relative viability,[19]; first compound 1.265 µM,0.654
same,relative viability,[20]; first compound 0.04 µM,0.701
same,relative viability,[20]; first compound 0.1265 µM,0.716
same,relative viability,[20]; first compound 0.4 µM,0.669
same,relative viability,[20]; first compound 1.265 µM,0.574
same,relative viability,[21]; first compound 0.04 µM,0.522
same,relative viability,[21]; first compound 0.1265 µM,0.6
same,relative viability,[21]; first compound 0.4 µM,0.485
same,relative viability,[21]; first compound 1.265 µM,0.457
same,relative viability,[22]; first compound 0.04 µM,0.678
same,relative viability,[22]; first compound 0.1265 µM,0.672
same,relative viability,[22]; first compound 0.4 µM,0.887
same,relative viability,[22]; first compound 1.265 µM,0.667
same,relative viability,[23]; first compound 0.04 µM,0.322
same,relative viability,[23]; first compound 0.1265 µM,0.452
same,relative viability,[23]; first compound 0.4 µM,0.4
same,relative viability,[23]; first compound 1.265 µM,0.358
